Measurements taken from US12290519B2, “Anti-inflammatory coupling compound drug, and preparation method therefor and use thereof” (COVAL BIOPHARMA (SHANGHAI) CO., LTD., priority 2021, dated 2025).

Assay: Hydrolysis rate / drug release rate of the compounds (release of JAK inhibitor, HPLC)
Type: physicochemical
Conditions: % release of JAK inhibitor from sample in acetonitrile/water=7/3 (v/v), 37° C. constant temperature shaker, sampled days 1-4, HPLC
Method in brief: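 HPLC quantified parent JAK inhibitor freed from each compound, calibrated with 0.0002–0.08 mg/mL standards. Samples in acetonitrile/water 7/3 were kept sealed at 37° C and analysed at day 0 and on days 1 to 4. % release was computed from sample weight, curve slope/intercept and the molecular-weight ratio.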

| Compound | Release Rate (%/day) |
| --- | --- |
| CCC(C(=O)n1ccc2c(-c3cnn(C4(CC#N)CN(S(=O)(=O)CC)C4)c3)ncnc21)c1ccc(N2Cc3ccccc3C2=O)cc1 (centres unmarked) [Ex. 30, 2-2-(1-(Ethylsulfonyl)-3-(4-(7-(2-(4-(1-oxoisoindolin-2-yl)phenyl)butanoyl)-7H-pyrrolo [2,3-d]pyrimidin-4-yl)-1H-pyrazol-1-yl)azetidin-3-yl) acetonitrile] | 1.63 |
| CCS(=O)(=O)N1CC(CC#N)(n2cc(-c3ncnc4c3ccn4COC(=O)[C@@H](NC(=O)OC(C)(C)C)c3ccccc3)cn2)C1 [Ex. 74, Methyl (4-(1-(3-(cyanomethyl)-1-(ethylsulfonyl)azetidin-3-yl)-1H-pyrazol-4-yl)-7H-pyrrolo [2,3-d]pyrimidin-7-yl) (S)-2-((tert-butoxycarbonyl)amino)-2-phenylacetate] | 0.44 |
| CCS(=O)(=O)N1CC(CC#N)(n2cc(-c3ncnc4c3ccn4C(=O)[C@@H](NC(=O)OC(C)(C)C)c3ccccc3)cn2)C1 [Ex. 26, Tert-butyl (S)-(2-(4-(1-(3-(cyanomethyl)-1-(ethylsulfonyl)azetidin-3-yl)-1H-pyrazol-4-yl)-7H-pyrrolo [2,3-d]pyrimidin-7-yl)-2-oxo-1-phenylethyl) carbamate] | 36.19 |
| CCS(=O)(=O)N1CC(CC#N)(n2cc(-c3ncnc4c3ccn4COC(=O)[C@@H](C)c3ccc4cc(OC)ccc4c3)cn2)C1 [Ex. 61, Methyl (4-(1-(3-(cyanomethyl)-1-(ethylsulfonyl)azetidin-3-yl)-1H-pyrazol-4-yl)-7H-pyrrolo [2,3-d]pyrimidin-7-yl) (S)-2-(6-methoxynaphthalen-2-yl) propanoate] | <0.01 |
| CC(C(=O)n1ccc2c(-c3cnn([C@H](CC#N)C4CCCC4)c3)ncnc21)c1cccc(C(=O)c2ccccc2)c1 (stereo partly drawn) [Ex. 32, (3R)-3-(4-(7-(2-(3-benzoylphenyl)propanoyl)-7H-pyrrolo [2,3-d]pyrimidin-4-yl)-1H-pyrazol-1-yl)-3-cyclopentylpropanenitrile] | 7.12 |
| CCS(=O)(=O)N1CC(CC#N)(n2cc(-c3ncnc4c3ccn4C(=O)c3ccccc3Nc3cccc(Cl)c3C)cn2)C1 [Ex. 40, 2-(3-(4-(7-(2-((3-Chloro-2-methylphenyl)amino)benzoyl)-7H-pyrrolo [2,3-d]pyrimidin-4-yl)-1H-pyrazol-1-yl)-1-(ethylsulfonyl)azetidin-3-yl) acetonitrile] | 0.62 |
| CCS(=O)(=O)N1CC(CC#N)(n2cc(-c3ncnc4c3ccn4C(=O)C(C)c3ccc(CC4CCCC4=O)cc3)cn2)C1 (centres unmarked) [Ex. 22] | 2.75 |
| COc1ccc2cc([C@H](C)C(=O)n3ccc4c(-c5cnn([C@H](CC#N)C6CCCC6)c5)ncnc43)ccc2c1 [Ex. 31] | 3.08 |
| CCS(=O)(=O)N1CC(CC#N)(n2cc(-c3ncnc4c3ccn4C(=O)C(C)c3cccc(Oc4ccccc4)c3)cn2)C1 (centres unmarked) [Ex. 21, 2-(1-(Ethylsulfonyl)-3-(4-(7-(2-(3-phenoxyphenyl)propanoyl)-7H-pyrrolo [2,3-d]pyrimidin-4-yl)-1H-pyrazol-1-yl)azetidin-3-yl) acetonitrile] | 4.6 |
| CC[C@@H]1CN(C(=O)NCC(F)(F)F)C[C@@H]1c1cnc2cnc3c(ccn3C(=O)C(C)c3ccc(CC(C)C)cc3)n12 (stereo partly drawn) [Ex. 124, (3S, 4R)-3-ethyl-4-(3-(2-(4-isobutylphenyl)propanoyl)-3H-imidazo [1,2-a]pyrrolo [2,3-e]pyrazin-8-yl)-N-(2,2,2-trifluoroethyl) pyrrolidine-1-carboxamide] | 2.75 |
| CC(=O)Oc1ccccc1C(=O)OCn1ccc2c(N(C)[C@H]3CN(C(=O)CC#N)CC[C@H]3C)ncnc21 [Ex. 56, (4-(((3R, 4R)-1-(2-cyanoacetyl)-4-methylpiperidin-3-yl) (methyl)amino)-7H-pyrrolo [2,3-d]pyrimidin-7-yl) methyl 2-acetoxybenzoate] | 0.07 |

Further lines, results first:

| Release Rate (%/day) | Compound |
| --- | --- |
| 0.05 | CC(C)Cc1ccc([C@H](C)C(=O)OCn2ccc3c(N4CC[C@]5(C4)[C@@H](C)CN5C(=O)CC#N)ncnc32)cc1 [Ex. 144, (4-((3S, 4R)-1-(2-cyanoacetyl)-3-methyl-1,6-diazaspiro [3.4]octan-6-yl)-7H-pyrrolo [2,3-d]pyrimidin-7-yl) methyl (S)-2-(4-isobutylphenyl) propanoate] |
| 0.98 | CCc1cccc2c3c([nH]c12)C(CC)(CC(=O)n1ccc2c(N(C)[C@H]4CN(C(=O)CC#N)CC[C@H]4C)ncnc21)OCC3 (stereo partly drawn) [Ex. 14, 3-((3R,4R)-3-((7-(2-(1,8-diethyl-1,3,4,9-tetrahydropyrano[3,4-b]indol-1-yl)acetyl)-7H-pyrrolo[2,3-d]pyrimidin-4-yl) (methyl)amino)-4-methylpiperidin-1-yl)-3-oxopropanenitrile] |
| 0.02 | CCc1cccc2c3c([nH]c12)C(CC)(CC(=O)OCn1ccc2c(N(C)[C@H]4CN(C(=O)CC#N)CC[C@H]4C)ncnc21)OCC3 (stereo partly drawn) [Ex. 63, (4-(((3R, 4R)-1-(2-cyanoacetyl)-4-methylpiperidin-3-yl) (methyl)amino)-7H-pyrrolo [2,3-d]pyrimidin-7-yl) methyl 2-(1,8-diethyl-1,3,4,9-tetrahydropyrano [3,4-b]indol-1-yl) acetate] |
| 0.08 | CCC(C(=O)OCn1ccc2c(N(C)C3CCC(CS(=O)(=O)NC)CC3)ncnc21)c1ccc(N2Cc3ccccc3C2=O)cc1 (stereo not drawn) [Ex. 117, (4-(Methyl ((trans)-4-((N-methylsulfamoyl)methyl)cyclohexyl)amino)-7H-pyrrolo [2,3-d]pyrimidin-7-yl) methyl 2-(4-(1-)oxoisoindolin-2-yl) phenyl) butanoate] |
| 13.49 | C[C@@H]1CCN(C(=O)CC#N)C[C@@H]1N(C)c1ncnc2c1ccn2C(=O)Cc1ccccc1Nc1c(Cl)cccc1Cl [Ex. 9] |
| 4.27 | CNS(=O)(=O)CC1CCC(N(C)c2ncnc3c2ccn3C(=O)c2ccccc2Nc2cccc(Cl)c2C)CC1 (stereo not drawn) [Ex. 41, 1-((Trans)-4-((7-(2-((3-chloro-2-methylphenyl)amino)benzoyl)-7H-pyrrolo [2,3-d]pyrimidin-4-yl) (methyl)amino)cyclohexyl)-N-methyl methanesulfonamide] |
| 8.10 | CC(C)Cc1ccc([C@H](C)C(=O)n2ccc3c(N4CC[C@]5(C4)[C@@H](C)CN5C(=O)CC#N)ncnc32)cc1 [Ex. 140, 3-((3S, 4R)-6-(7-((S)-2-(4-isobutylphenyl)propanoyl)-7H-pyrrolo [2,3-d]pyrimidin-4-yl)-3-methyl-1,6-diazaspiro [3.4]oct-1-yl)-3-oxopropanenitrile] |
| 2.99 | CNS(=O)(=O)C[C@H]1CC[C@H](N(C)c2ncnc3c2ccn3C(=O)c2ccccc2Nc2cccc(C)c2C)CC1 [Ex. 43, 1-((trans)-4-((7-(2-((2,3-dimethylphenyl)amino)benzoyl)-7H-pyrrolo [2,3-d]pyrimidin-4-yl) (methyl)amino)cyclohexyl)-N-methyl methanesulfonamide] |
| 1.05 | CCc1cccc2c3c([nH]c12)C(CC)(CC(=O)n1ccc2c(N(C)C4CCC(CS(=O)(=O)NC)CC4)ncnc21)OCC3 (stereo not drawn) [Ex. 37, 1-((Trans)-4-((7-(2-(1,8-diethyl-1,3,4,9-tetrahydropyrano [3,4-b]indol-1-yl)acetyl)-7H-pyrrolo [2,3-d]pyrimidin-4-yl) (methyl)amino)cyclohexyl)-N-methyl methanesulfonamide] |
| 39.31 | C[C@@H]1CCN(C(=O)CC#N)C[C@@H]1N(C)c1ncnc2c1ccn2C(=O)[C@@H](NC(=O)OC(C)(C)C)c1ccccc1 [Ex. 16, Tert-butyl ((S)-2-(4-(((3R, 4R)-1-(2-cyanoacetyl)-4-methylpiperidin-3-yl) (methyl)amino)-7H-pyrrolo[2,3-d]pyrimidin-7-yl)-2-oxo-1-phenylethyl)carbamate] |
| 0.42 | CNS(=O)(=O)C[C@H]1CC[C@H](N(C)c2ncnc3c2ccn3COC(=O)c2ccccc2Nc2cccc(Cl)c2C)CC1 [Ex. 120, (4-(Methyl ((trans)-4-((N-methylsulfamoyl)methyl)cyclohexyl)amino)-7H-pyrrolo [2,3-d]pyrimidin-7-yl) methyl 2-((3-chloro-2-methylphenyl)amino) benzoate] |
| 0.82 | CNS(=O)(=O)C[C@H]1CC[C@H](N(C)c2ncnc3c2ccn3COC(=O)Cc2ccccc2Nc2c(Cl)cccc2Cl)CC1 [Ex. 92, (4-(Methyl ((trans)-4-((N-methylsulfamoyl)methyl)cyclohexyl)amino)-7H-pyrrolo [2,3-d]pyrimidin-7-yl) methyl 2-(2-((2,6-dichlorophenyl)amino)phenyl) acetate] |
| 10.11 | CNS(=O)(=O)CC1CCC(N(C)c2ncnc3c2ccn3C(=O)[C@@H](C)c2ccc3cc(OC)ccc3c2)CC1 (stereo partly drawn) [Ex. 39, 1-((Trans)-4-((7-((S)-2-(6-methoxynaphthalen-2-yl)propanoyl)-7H-pyrrolo [2,3-d]pyrimidin-4-yl) (methyl)amino)cyclohexyl)-N-methyl methanesulfonamide] |
| 0.03 | COc1ccc2cc([C@H](C)C(=O)OCn3ccc4c(N(C)[C@H]5CN(C(=O)CC#N)CC[C@H]5C)ncnc43)ccc2c1 [Ex. 48, 4-(((3R, 4R)-1-(2-cyanoacetyl)-4-methylpiperidin-3-yl) (methyl)amino)-7H-pyrrolo [2,3-d] pyrimidin-7-yl) methyl (S)-2-(6-methoxynaphthalen-2-yl) propanoate] |
| 0.11 | CC(C(=O)OCn1ccc2c(N(C)[C@H]3CN(C(=O)CC#N)CC[C@H]3C)ncnc21)c1cccc(C(=O)c2ccccc2)c1 (stereo partly drawn) [Ex. 49, (4-(((3R, 4R)-1-(2-cyanoacetyl)-4-methylpiperidin-3-yl) (methyl)amino)-7H-pyrrolo [2,3-d]pyrimidin-7-yl) methyl 2-(3-benzoylphenyl) propanoate] |
